T1: TR (Homo sapiens, UniProt P10827)
T1 construct: expressed in transfected cells; host or cells: CV-1 (African green monkey kidney)
T1 sequence (P10827 1-410 isoform P10827-2): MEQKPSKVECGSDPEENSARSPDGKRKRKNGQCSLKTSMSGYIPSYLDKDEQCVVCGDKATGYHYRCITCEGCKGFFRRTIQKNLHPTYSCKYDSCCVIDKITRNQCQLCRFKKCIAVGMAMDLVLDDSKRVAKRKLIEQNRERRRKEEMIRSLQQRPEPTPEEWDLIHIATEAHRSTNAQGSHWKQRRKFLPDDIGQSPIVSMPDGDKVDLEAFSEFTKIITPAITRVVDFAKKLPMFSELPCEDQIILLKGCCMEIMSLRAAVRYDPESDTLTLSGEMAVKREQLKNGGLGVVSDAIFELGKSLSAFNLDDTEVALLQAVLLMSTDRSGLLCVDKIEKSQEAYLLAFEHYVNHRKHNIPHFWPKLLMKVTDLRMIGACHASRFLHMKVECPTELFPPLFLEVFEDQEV

B1: ERRγ3: novel ERRγ isoform, nuclear receptor protein of 396 amino acids (SEQ ID NO: 2) lacking part of the DNA binding domain (protein, listed as Homo sapiens)
chain: MSNKDRHIDSSCSSFIKTEPSSPASLTDSVNHHSPGGSSDASGSYSSTMNGHQNGLDSPPLYPSAPILGGSGPVRKLYDDCSSTIVEDPQTKCEYMLNSMPKRLCLVCGDIASGYHYGVASCEACKAFFKRTIQGVRLDRVRGGRQKYKRRIDAENSPYLNPQLAQPAKKPYNKIVSHLLVAEPEKIYAMPDPTVPDSDIKALTTLCDLADRELVVIIGWAKHIPGFSTLSLADQMSLLQSAWMEILILGVVYRSLSFEDELVYADDYIMDEDQSKLAGLLDLNNAILQLVKKYKSMKLEKEEFVTLKAIALANSDSMHIEDVEAVQKLQDVLHEALQDYEAGQHMEDPRRAGKMLMTLPLLRQTSTKAVQHFYNIKLEGKVPMHKLFLEMLEAKV

Experiments:
[1] = target: T1, TR; assay: Reporter gene assay, ERRγ3 coexisted with TR in CV-1 cells; type: cell-based
[2] = system: ERRγ2; assay: Reporter gene assay, ERRγ3 coexisted with ERRγ2, ERE luciferase reporter in CV-1 cells; type: cell-based, human; conditions: FIG. 15
Experimental: The reporter gene assay was performed using CV-1 cells (African green monkey kidney-derived cell line) as hosts. Host cells were transfected with luciferase reporter plasmids and expression plasmids for ERRγ3, ERRγ2, or both. They were then exposed to 4-hydroxytamoxifen at different concentrations (0, 10^−10 to −10^−5 M) for 24 hours, whereupon luciferase activity within the cells was measured.
Transfection was performed as follows: CV-1 cells were suspended at 2×10^5 cells/2.5 ml in DMEM medium supplemented with 10% fetal bovine serum, 2000 U/l of penicillin G, and 100 mg/l streptomycin. These cells were seeded to a 6-well plate at 2.5 ml/well, and cultured for 18 to 24 hours in a CO2 incubator at 37° C. in the presence of 5% CO2. 1 μg of each of the transcription factor expression plasmid, the luciferase reporter plasmid, and another luciferase reporter plasmid for normalizing the measured value (pRL-TK), were dissolved in Opti-MEM (Gibco BRL) to total of 150 μl. 7 μl of the cell transfection reagent LipofectAMINE 2000 (Gibco BRL) was diluted in 143 μl of Opti-MEM, and this was added to the mixture drop by drop while stirring. […]
Luciferase activity was measured using the Dual-Luciferase™ Reporter Assay System (Promega). […] The protocol for measurement was as follows: 50 μl of Luciferase Assay Reagent II was added to each well, stirred for 0.3 seconds and measured for one second.

[3] = target: T2, ERβ (Homo sapiens, UniProt Q92731); assay: Reporter gene assay, ERRγ3 coexisted with ERβ in CV-1 cells; type: cell-based
T2 construct: expressed in transfected cells; host or cells: CV-1 (African green monkey kidney)
T2 sequence (Q92731 whole entry): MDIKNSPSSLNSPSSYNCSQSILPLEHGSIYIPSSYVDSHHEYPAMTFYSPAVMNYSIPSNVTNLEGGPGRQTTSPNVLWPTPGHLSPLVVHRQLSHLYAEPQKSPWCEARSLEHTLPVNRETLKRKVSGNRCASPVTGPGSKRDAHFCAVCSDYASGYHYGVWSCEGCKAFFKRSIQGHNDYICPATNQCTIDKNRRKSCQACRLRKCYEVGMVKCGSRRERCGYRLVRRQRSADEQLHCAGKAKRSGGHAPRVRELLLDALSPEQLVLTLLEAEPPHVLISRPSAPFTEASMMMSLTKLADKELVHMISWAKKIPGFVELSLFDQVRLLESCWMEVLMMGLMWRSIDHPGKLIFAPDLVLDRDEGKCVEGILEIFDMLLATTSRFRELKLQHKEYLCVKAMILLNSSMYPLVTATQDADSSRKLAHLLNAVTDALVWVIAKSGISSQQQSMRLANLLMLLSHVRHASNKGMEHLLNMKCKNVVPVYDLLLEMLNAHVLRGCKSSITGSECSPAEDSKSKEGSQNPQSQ

ERRγ2, sequence (P62508 whole entry): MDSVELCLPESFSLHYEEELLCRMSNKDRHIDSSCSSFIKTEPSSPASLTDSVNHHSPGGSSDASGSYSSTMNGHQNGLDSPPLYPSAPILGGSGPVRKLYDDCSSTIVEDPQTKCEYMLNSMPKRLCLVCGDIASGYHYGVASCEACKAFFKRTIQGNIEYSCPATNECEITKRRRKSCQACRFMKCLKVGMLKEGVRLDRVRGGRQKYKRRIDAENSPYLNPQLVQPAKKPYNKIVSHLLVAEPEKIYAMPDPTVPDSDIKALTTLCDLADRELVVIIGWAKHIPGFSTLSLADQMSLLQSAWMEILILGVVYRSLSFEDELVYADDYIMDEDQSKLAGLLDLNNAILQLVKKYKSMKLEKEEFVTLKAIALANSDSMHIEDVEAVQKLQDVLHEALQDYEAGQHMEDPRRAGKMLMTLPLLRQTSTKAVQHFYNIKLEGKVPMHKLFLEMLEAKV

Molecule	effect of 4-hydroxytamoxifen on the enhancing function of ERRγ3 on TR ([1]; 10^−5 M thyroxine present)	4-hydroxytamoxifen concentration at which the enhancing function of ERRγ3 on ERRγ2 was reduced ([2]; CV-1 cells, 24 hours exposure)	effect of 4-hydroxytamoxifen on the enhancing function of ERRγ3 on ERβ ([3]; 10^−5 M (R)-estradiol present)	function enhancement of the transcription-controlling activity of TR ([1]; ERRγ3 with TR, 10^−5 M thyroxine, FIG. 18)	enhancement of the transcriptional activation function of ERRγ2 ([2]; ERRγ3 coexisted with ERRγ2, CV-1 cells, ERE luciferase reporter)	function enhancement of the transcription-controlling activity of ERβ ([3]; ERRγ3 with ERβ, 10^−5 M (R)-estradiol, FIG. 17)
4-hydroxytamoxifen [reference compound]	no function-enhancing effect	≥ 10^−6 M	no function-enhancing effect	–	–	–
B1	–	–	–	128-229%	53-68%	600-650%
